Experimental data from publication PMC10458307, “New Scaffolds of Proteasome Inhibitors: Boosting Anticancer Potential by Exploiting the Synergy of In Silico and In Vitro Methodologies” (Pharmaceuticals, 2023).
Where “and” joins values, the source holds several entries; their conditions need not be identical. Identical values can stand only once.

How the values were obtained:
Jurkat cells = experiment: Cell viability, MTT assay, Jurkat; assay type: cell-based, human; settings: 72 h; for IC50: Homo sapiens, Jurkat, mean ± SD; for percentage of cell viability, MTT, Jurkat: at 100 µM
Method: (§1) Whenever possible, additional concentrations were tested and IC50 values were determined.
(§2) Human leukemia Jurkat E6.1 T-cell line and K562-cell line were originally obtained from ATCC Collections (Manassas, VA, USA); human HT-29 and HCT116 colorectal carcinoma-cell lines were obtained from ECACC (Porton Down, Porton, UK). Cells were passaged for less than 6 months after and routinely tested for mycoplasma contamination using Mycoalert detection kit (Lonza, Basel, Switzerland). Jurkat, K562, and HT-29 cells were maintained in Roswell Park Memorial Institute (RPMI) 1640 with GlutaMAX™, supplemented with 1% antibiotic mixture (100 µg/mL streptomycin and 100 U/mL penicillin) and 10% heat-inactivated foetal bovine serum (FBS) (all from Gibco, Thermo Fisher Scientific, Paisley, UK). HCT116 cells were maintained in Dulbecco’s Modified Eagle Medium (DMEM) with GlutaMAX™, supplemented with 1% antibiotic mixture (100 µg/mL streptomycin and 100 U/mL penicillin) and 10% heat-inactivated FBS (all from Gibco, Thermo Fisher Scientific, Paisley, UK). Incubation was performed at 37 °C in a 5% CO2 atmosphere. Cells were routinely passaged every 2 or 3 days at 70–90% confluence; TrypLE Express (Gibco, Thermo Fisher Scientific, Paisley, UK) was used as dissociation agent for adherent cells. Trypan blue (Gibco, Thermo Fisher Scientific, Paisley, UK) was used to assess cell viability using the dye exclusion test.
(§3) To assess cell viability, the MTT assay was performed. Jurkat/K562/HT-29/HCT116 cell lines were seeded in triplicate (10,000 cells/well) in 96-well plates with 50 µL of complete medium and incubated at 37 °C, 5% CO2 for 24 h to allow the cells to adhere to the plate (in the case of adherent cells). […] Untreated cells seeded in triplicate were used as control. The blank was performed in triplicate with 100 µL of culture medium. The cells were incubated with the compounds, in triplicate, in 100 µL of total volume, at 37 °C, 5% CO2 for 72 h. […] In suspension cells (Jurkat), 25 µL of MTT were directly added to each well and, after 3 h 30 m of incubation, 100 µL of DMSO were added to solubilize the formazan crystals; in adherent cells (HT-29 and HCT116), the culture medium was removed, 25 µL of MTT were added to each well and, after 3 h 30 m of incubation, upon MTT removal, 100 µL of DMSO were added to solubilize the formazan crystals. After 15 min, the samples absorbance was measured at 570 nm and the percentage of cell viability was determined.

[1] = Cell viability, MTT assay, Jurkat; assay type: cell-based, human; settings: human, Jurkat E6.1 T-cell leukemia cells, read-out: percentage of cell viability, MTT, Jurkat; for viability at 72 h, 10 µM: at 10 µM; for viability at 72 h, 100 µM: at 100 µM
Method: as §1, §2, §3

[2] = biological target: T1, isolated human 20S proteasome, T-L activity (Homo sapiens, UniProt P49720+Q99436); experiment: Proteasome inhibition assay in isolated human 20S proteasomes (Proteasome-Glo), T-L activity; assay type: biochemical; settings: for inhibition at 10 µM: read-out: percentage of proteasome inhibition, T-L, isolated 20S proteasome; for percentage of proteasome inhibition, T-L, isolated human 20S proteasome: at 100 µM, Table 1 legend: bortezomib positive control 10 µM; for IC50: mean ± SD
T1 construct: human purified erythrocyte-derived 20S proteasome; purchased Enzo Life Sciences, Inc; host or cells: human erythrocytes (natural source)
From the text: In this assay, the peptide substrates are bound to aminoluciferin (Suc-LLVY-AML for CT-L activity, Z-nLPnLD-AML for C-L, and Z-LRR-AML for T-L), leading the cleavage of these substrates by the proteasome to the release of free aminoluciferin, which is the substrate of the buffer-contained luciferase.
To evaluate human purified erythrocyte-derived 20S proteasome inhibitory activity of the chosen compounds, the Proteasome-Glo™ 3-substrate system (Promega Corporation, Madison, WI, USA) was employed. The Proteasome-Glo™ reagents of the three proteolytic activities were prepared according to the manufacturer’s instructions, aliquoted, and stored at either −20 °C or 4 °C, avoiding freezing–thaw cycles. […] The purified 20S proteasome (Enzo Life Sciences, Inc., Farmingdale, NY, USA) was diluted in HEPES buffer 10 mM, pH 7.4, to a concentration experimentally adjusted to the signal/noise ratio obtained with each particular lot of Proteasome-Glo™ reagent, in order to have a good compromise between sensitivity and linear response. […] All assays were performed in white-walled multiwell plates (Thermo Scientific™ Sterilin™ White Microtiter™ plates, Thermo Fisher Scientific, Paisley, UK) in duplicates. The proteasome solution (25 μL) was added to each well first, then the diluted solutions of the assayed compounds (25 μL), and lastly the Proteasome-Glo™ Reagent (50 μL). […] Reagents were added to the plate well on ice, and the plate was then transferred to the plate luminometer (SpectraMax®, Molecular Devices, LLC, San Jose, CA, USA) set at 37 °C, gently mixed for 30 s, and the measurements were immediately started in kinetic mode, with data collected every 5 min for at least 60 min.
All compounds were dissolved in DMSO at a concentration of 10 mM and stored at −20 °C or 4 °C. Solutions of the test compounds were prepared at their adequate dilutions in 10 mM HEPES buffer pH 7.6 before each experiment.
To calculate the proteasome activity over time, the value of mean relative luminescence units (RLU) of blank wells at each respective time point was subtracted, and then the ratio between mean RLU of the sample and mean RLU of the positive control wells was calculated for each time point and expressed as percentage.

[3] = biological target: T2, 20S proteasome in Jurkat cell lysates, CT-L activity (Homo sapiens, UniProt P28074); experiment: Proteasome inhibition assay in cell lysates, Jurkat, CT-L; settings: for inhibition at 10 µM: read-out: percentage of proteasome inhibition, CT-L, cell lysates Jurkat, at 10 µM; for inhibition at 100 µM: read-out: percentage of proteasome inhibition, CT-L, cell lysates Jurkat, at 100 µM
T2 sequence (P28074 60-263): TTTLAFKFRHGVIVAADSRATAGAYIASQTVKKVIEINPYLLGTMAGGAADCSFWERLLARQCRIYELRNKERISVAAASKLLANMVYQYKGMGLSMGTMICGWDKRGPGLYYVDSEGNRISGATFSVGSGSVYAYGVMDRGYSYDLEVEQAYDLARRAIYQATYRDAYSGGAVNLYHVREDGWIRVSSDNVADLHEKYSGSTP
T2 sequence (P20618 29-241 partner): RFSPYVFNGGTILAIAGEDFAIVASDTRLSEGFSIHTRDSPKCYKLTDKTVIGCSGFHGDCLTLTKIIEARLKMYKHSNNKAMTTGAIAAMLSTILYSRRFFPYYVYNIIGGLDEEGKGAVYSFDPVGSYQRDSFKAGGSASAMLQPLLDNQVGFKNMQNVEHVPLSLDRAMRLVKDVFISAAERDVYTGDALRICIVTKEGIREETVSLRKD
Method: Cells were obtained from several cultured cell lines: Jurkat, K562, HT-29, and HCT116. Pellets with 20 × 10^6 cells were prepared and washed with cold sterile phosphate buffered saline (PBS), 1×, pH 7.4 (Gibco, Thermo Fisher Scientific, Paisley, UK). The preparation of the lysates from several cell lines was performed based on the methodology described by Gavioli et al. [67]. Cells were resuspended in buffer containing 50 mM TRIS-HCl pH 7.4 (Nzytech, Lisboa, Portugal), 5 mM MgCl2 (≥98% purity, Merck, Hamburg, Germany), 1 mM DTT (Merck, Hamburg, Germany), 2 mM ATP (≥98% purity, Enzo Life Sciences Inc., Farmingdale, NY, USA), and 250 mM saccharose (Merck, Hamburg, Germany). Glass beads (Merck, Hamburg, Germany) equivalent to the volume of the cell suspension were added, and the mixture was vortexed for 2 min at 4 °C. Beads and cell debris were removed using 5 min centrifugation at 1000× g and 4 °C, followed by 20 min of centrifugation at 10,000× g at 4 °C. Cell lysates containing proteasomes were resuspended in “activity buffer” [50 mM TRIS-HCl (pH 7.4), 5 mM MgCl2, 1 mM DTT, 2 mM ATP (≥98% purity, Enzo Life Sciences Inc., Farmingdale, NY, USA), and 500 µM EDTA (≥98% purity, Merck, Hamburg, Germany)]. Protein concentration was determined using the Pierce™ BCA protocol (Thermo Fisher Scientific, Rockford, IL, USA). […] DMSO was added in an equal volume as used for the untreated compounds as a way to assess/control its influence in the assay. Untreated cells were used as control. In each well of a 96-well plate, 25 µL of lysate were seeded in duplicate with 25 µL of the compound to test; in the control, 25 µL of activity buffer were added to the 25 µL of lysate. A blank (50 µL of activity buffer) was added to the wells in quadruplicate. Cell lysates, pre-treated or not with different concentrations of the test compounds, were incubated for 30 min at 37 °C. […] Stock solutions (10 mM) of each substrate were prepared in DMSO, diluted in activity buffer, and 50 µL were added to all wells (final concentration of each substrate = 100 µM), followed by an incubation at 37 °C for 60 min. Samples fluorescence was measured at an excitation wavelength of 360 nm and emission of 465 nm; the fluorescence measures were performed using the GloMax-Multi + Detection System (Promega Corp., Madison, WI, USA). Activity was evaluated in fluorescence units, after being converted to percentage of proteasome inhibition and, whenever possible, expressed as IC50 by plotting the inhibition data of each compound at different concentrations against the log of the concentration of the inhibitor, using the GraphPad Prism software version 7. At least eight different concentrations of the test compounds were used.

[4] = Cell viability, MTT assay, HCT116; assay type: cell-based, human; settings: human, HCT116 colorectal carcinoma cells; for viability at 72 h, 10 µM: at 10 µM, read-out: percentage of cell viability, MTT, HCT-116; for viability at 72 h, 100 µM: at 100 µM, read-out: percentage of cell viability, MTT, HCT116
Method: as §1, §2, §3

HCT116 cells = experiment: Cell viability, MTT assay, HCT116; assay type: cell-based, human; settings: 72 h; for IC50: Homo sapiens, HCT-116, mean ± SD; for percentage of cell viability, MTT, HCT116: at 100 µM
Method: as §1, §2, §3

[5] = at 100 µM, Table 2 legend: bortezomib 10 µM
[6] = Table 2 legend: bortezomib 10 µM

In the case of `CC(C)C[C@H](NC(=O)[C@H](Cc1ccccc1)NC(=O)c1cnccn1)B(O)O` [Bortezomib, bortezomib, reference compound], the IC50 (Jurkat cells) is reported as 0.00648 µM, the viability at 72 h, 10 µM [1] is reported as 0% and the viability at 72 h, 100 µM [1] is reported as 0%. The inhibition at 10 µM [2] was 3.2%, the “percentage of proteasome inhibition, T-L, isolated human 20S proteasome” value (shortened to “percentage of proteasome inhibition, T-L”) [2] was 33.58% and 34% and the “percentage of proteasome inhibition, CT-L, cell lysates Jurkat” value ([3]; at 10 µM) was 99.63%. For the same compound, the “percentage of proteasome inhibition, CT-L, cell lysates Jurkat” value [3, 5] was 99.30% and 99%, the viability at 72 h, 10 µM [4] was 0% and the viability at 72 h, 100 µM [4] was 0%. For the same compound, the IC50 (HCT116 cells) was 0.0107 µM.
In the case of `C#CCCN1CCN(c2ccc(-n3c(=O)ccc4cnc5ccc(-c6ccc(N)nc6)cc5c43)cc2C(F)(F)F)CC1` [Compound 4, 9-(6-Aminopyridin-3-yl)-1-(4-(4-(but-3-yn-1-yl)piperazin-1-yl)-3-(trifluoromethyl)phenyl)benzo[h][1,6]naphthyridin-2(1H)-one], the IC50 (Jurkat cells) is reported as 1.37 µM, the viability at 72 h, 10 µM [1] is reported as 23.3% and the viability at 72 h, 100 µM [1] is reported as 0%. The inhibition at 10 µM [2] was 0%, the “percentage of proteasome inhibition, T-L” value [2] was 73.95% and 74% and the IC50 [2] was 48.4 µM. It also gave an IC50 [3] of 24.3 µM, an inhibition at 10 µM [3] of 10.5% and an inhibition at 100 µM [3, 6] of 98%. For the same compound, the viability at 72 h, 10 µM [4] was 38.4%, the viability at 72 h, 100 µM [4] was 0% and the IC50 (HCT116 cells) was 1.02 µM.
In the case of `CC(C)c1nc(CN(C)C(=O)N[C@@H](CCN2CCOCC2)C(=O)N[C@H](CC[C@H](Cc2ccccc2)NC(=O)OCc2cncs2)Cc2ccccc2)cs1` [Compound 5, cobicistat, reference compound], the IC50 (Jurkat cells) is reported as 43.8 µM, the viability at 72 h, 10 µM [1] is reported as 93.3% and the viability at 72 h, 100 µM [1] is reported as 0%. For the same compound, the inhibition at 10 µM [2] was 5.37%, the “percentage of proteasome inhibition, T-L” value [2] was 5.35% and 5% and the “percentage of proteasome inhibition, CT-L, cell lysates Jurkat” value [3, 5] was 64%. The inhibition at 10 µM [3] was 0%, the inhibition at 100 µM [3, 6] was 63.7% and the viability at 72 h, 10 µM [4] was 98.7%. For the same compound, the viability at 72 h, 100 µM [4] was 23.7%, the IC50 (HCT116 cells) was 58.4 µM and the “percentage of cell viability, MTT, HCT116” value (“percentage … HCT116” below) (HCT116 cells) was 24%.
In the case of `Cc1ccc(/C(=N/NS(=O)(=O)c2ccc([N+](=O)[O-])cc2)Sc2cc(Cl)c(C)cc2S(N)(=O)=O)cc1` [Compound 3], the “percentage of cell viability, MTT, Jurkat” value (shortened to “percentage … MTT, Jurkat”) (Jurkat cells) is reported as 86%, the viability at 72 h, 10 µM [1] is reported as 98.1% and the viability at 72 h, 100 µM [1] is reported as 86%. For the same compound, the inhibition at 10 µM [2] was 8.8%, the “percentage of proteasome inhibition, T-L” value [2] was 95.30% and 95% and the IC50 [2] was 27.5 µM. For the same compound, the “percentage of proteasome inhibition, CT-L, cell lysates Jurkat” value [3, 5] was 33%, the inhibition at 10 µM [3] was 0% and the inhibition at 100 µM [3, 6] was 32.8%. For the same compound, the viability at 72 h, 10 µM [4] was 100%, the viability at 72 h, 100 µM [4] was 95.2% and the “percentage … HCT116” value (HCT116 cells) was 95%.
In the case of `O=C1c2ccccc2C(=O)c2c(Nc3ccc(S(=O)(=O)N(CCO)CCO)cc3)ccc(O)c21` [Compound 2], the “percentage … MTT, Jurkat” value (Jurkat cells) is reported as 77%, the viability at 72 h, 10 µM [1] is reported as 80.2% and the viability at 72 h, 100 µM [1] is reported as 77.2%. The inhibition at 10 µM [2] was 0%, the “percentage of proteasome inhibition, T-L” value [2] was 97.00% and the IC50 [2] was 25.8 µM. The IC50 [3] was 73.2 µM, the “percentage of proteasome inhibition, CT-L, cell lysates Jurkat” value [3, 5] was 72% and the inhibition at 10 µM [3] was 8.23%. The inhibition at 100 µM [3, 6] was 72.1%, the viability at 72 h, 10 µM [4] was 98% and the viability at 72 h, 100 µM [4] was 89.1%. For the same compound, the “percentage … HCT116” value (HCT116 cells) was 89%.
With `Cc1ccc2ccccc2c1CSc1ncnc2c1ncn2C1OC(CO)C(O)C1O` (centres unmarked) [Compound 1] the IC50 (Jurkat cells) was 36.8 µM, the “percentage … MTT, Jurkat” value (Jurkat cells) was 21% and the viability at 72 h, 10 µM [1] was 98.7%. For the same compound, the viability at 72 h, 100 µM [1] was 21%, the inhibition at 10 µM [2] was 4.43% and the “percentage of proteasome inhibition, T-L” value [2] was 51.65% and 52%. For the same compound, the “percentage of proteasome inhibition, CT-L, cell lysates Jurkat” value [3, 5] was 54%, the inhibition at 10 µM [3] was 0% and the inhibition at 100 µM [3, 6] was 53.5%. The viability at 72 h, 10 µM [4] was 95.5%, the viability at 72 h, 100 µM [4] was 24% and the IC50 (HCT116 cells) was 65.7 µM.
